Experimental data published in US20260035360A1, “INHIBITORS OF MYC AND USES THEREOF” (Northwestern University, priority 2022, published 2026).

Columns and labels:
[1] = Plasma pharmacokinetics after 1 mg/kg PO in female mice; details: mouse; for half-life: female mice
Description: (§3) PK: Plasma levels of compounds were determined after 1 mg/kg dosing PO in female BALB/C mice.
(§4) Plasma levels of compounds were determined after 1 mg/kg dosing PO in female BALB/C mice.

[2] = female, mouse, in vivo, po, 1 mg/kg
Description: as §3, §4

MYC = target: T1, MYC (Homo sapiens, UniProt P01106); assay: MYC protein level in PC3 cells by western blot, 24 hr; assay type: cell-based; details: PC-3, 24 h, PC3, 24 h, Actin control, read-out: Relative MYC protein at 10 μM (%, PC3 24 h)
T1 construct: endogenous in cells; host or cells: PC3 cells
Description: (§1) Table 2. Biological data of selected compounds. For IC50 determination. PC3 and PC12 cells were treated with increasing concentrations of the indicated compounds for 72 hrs and cell viability assessed using CellTitreGlo Assay (Promega). For MYC and ATF4 protein level determination. PC3 cells were treated with the indicated compounds for 24 hr sand cell lysates processed for western blot with MYC and ATF4 antibodies using Actin as a control. Quantification analyses were performed by Biorad ChemiDoc Imager and Bio-Rad Image Lab software.

PC12 cells = assay: PC12 cell viability, CellTitreGlo Assay, 72 hrs; assay type: cell-based; details: for IC50: Rattus norvegicus, PC-12
Description: as §1

ATF4 = ATF4 protein level in PC3 cells by western blot, 24 hr; assay type: cell-based; details: Homo sapiens, PC-3, PC3, 24 h, Actin control, read-out: Relative ATF4 protein at 10 μM (fold change, PC3 24 h)
Description: as §1

PC3 cells = assay: PC3 cell viability, CellTitreGlo Assay, 72 hrs; assay type: cell-based; details: Homo sapiens, PC-3
Description: as §1

MycCaP;Pten-KO cells = assay: Tumor growth inhibition, MycCaP;Pten-KO subcutaneous allograft in male FVB/N mice; assay type: in vivo; details: after 14 d; for TGI: QD, Table 7; for Efficacy MycCaP;Pten-ko (TGI @ 100 mg/kg/d po): male FVB/N mice, Table 3
Description: (§2) Table 3. Biological data of selected compounds. […] Tumor growth inhibition (TGI) was determined after 14 d.
Table 7. Tumor Growth Inhibition data. […] Tumor growth inhibition (TOD was determined after 14 d.

[3] = Toxicity (weight loss) in tumor-bearing mice; assay type: in vivo; details: weight loss class
Description: as §2

T1 sequence (P01106 whole entry): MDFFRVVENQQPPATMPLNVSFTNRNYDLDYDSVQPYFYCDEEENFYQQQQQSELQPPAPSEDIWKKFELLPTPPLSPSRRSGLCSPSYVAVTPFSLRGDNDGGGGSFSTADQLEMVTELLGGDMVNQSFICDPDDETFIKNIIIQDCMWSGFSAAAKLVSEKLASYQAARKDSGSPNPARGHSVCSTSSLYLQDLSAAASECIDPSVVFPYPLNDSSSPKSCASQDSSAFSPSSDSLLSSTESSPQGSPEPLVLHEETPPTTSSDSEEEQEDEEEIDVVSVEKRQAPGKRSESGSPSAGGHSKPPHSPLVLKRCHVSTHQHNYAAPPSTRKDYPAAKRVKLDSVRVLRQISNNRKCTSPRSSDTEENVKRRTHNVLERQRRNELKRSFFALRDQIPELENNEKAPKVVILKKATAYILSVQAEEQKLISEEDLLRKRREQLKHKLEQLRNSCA

SMILES	remaining activity at 10 µM (MYC) [%]	IC50 (PC3 cells) [µM]	fold induction at 10 µM (ATF4)	IC50 (PC12 cells) [µM]	further results
Cn1nc(C(F)(F)F)cc1-c1ccc(COc2ccc(Cl)cc2)c(-c2ccc(Cl)c(C(F)(F)F)c2)c1O [NUCC-0202416]	38.9	4.71	9.3	–	AUC(0-t) [1]: 5760 ng·h/mL; Cmax [1]: 244 ng/mL; Tmax [1]: 8 h; AUMC0-t [2]: 88636 h*h*ng/mL; PC12 IC50 (PC12 cells): inactive
Cc1ncsc1-c1ccc(CNC(=O)[C@@H]2C[C@H](O)CN2C(=O)[C@H](NC(=O)COCCNC(=O)CCOCCCN(C(=O)c2ccc(Cl)c(C(F)(F)F)c2)c2ccc(-c3cc(C(F)(F)F)nn3C)c(O)c2)C(C)(C)C)cc1 [NUCC-0226291]	54.6	4	1.8	14.6	–
C[C@@H](C(=O)N[C@H](C(=O)N1C[C@@H](NC(=O)COCCOCCNC(=O)CCOCCCN(C(=O)c2ccc(Cl)c(C(F)(F)F)c2)c2ccc(-c3cc(C(F)(F)F)nn3C)c(O)c2)C[C@H]1C(=O)N[C@@H]1CCCc2ccccc21)C1CCCCC1)N(C)C(=O)OC(C)(C)C [NUCC-0226299]	42.1	3.8	5.4	11.3	–
Cc1ccc(C2(Oc3ccc(-c4cc(C(F)(F)F)nn4C)c(O)c3-c3ccc(Cl)c(C(F)(F)F)c3)CC2)cc1 [NUCC-0226495]	15.6	3.8	11.5	597	–
Cn1nc(C(F)(F)F)cc1-c1cc(Cl)c(N)c(-c2ccc(Cl)c(C(F)(F)F)c2)c1O [NUCC-0226528]	19.8	4.5	2	30.5	–
CNc1c(Cl)cc(-c2cc(C(F)(F)F)nn2C)c(O)c1-c1ccc(Cl)c(C(F)(F)F)c1 [NUCC-0226529]	41.3	3.1	2.4	19.4	–
CN(C)c1c(Cl)cc(-c2cc(C(F)(F)F)nn2C)c(O)c1-c1ccc(Cl)c(C(F)(F)F)c1 [NUCC-0226530]	35.5	12	3	9.4	–
Cn1nc(C(F)(F)F)cc1-c1c(F)cc(OCc2ccc(Cl)cc2)c(-c2ccc(Cl)c(C(F)(F)F)c2)c1O [NUCC-0226545]	19.5	2.2	4.7	10.8	AUC(0-t) [1]: 4760 ng·h/mL; Cmax [1]: 472 ng/mL; MRT inf [1]: 7.57 h; Tmax [1]: 4 h; half-life ([1]; T1/2, Table 4, PO 1 mg/kg): 4.3 h; half-life ([1]; T1/2—range*, Table 4, PO 1 mg/kg): 8 to 24 h; AUMC0-t [2]: 36107 h*h*ng/mL
Cn1nc(C(F)(F)F)c(Cl)c1-c1ccc(COc2ccc(Cl)cc2)c(-c2ccc(Cl)c(C(F)(F)F)c2)c1O [NUCC-0226606]	38.2 ± 3.9	2.23	9.7 ± 1.2	16.6	AUC(0-t) [1]: 15200 ng·h/mL; Cmax [1]: 841 ng/mL; Tmax [1]: 12 h; AUMC0-t [2]: 177148 h*h*ng/mL; TGI (MycCaP;Pten-KO cells; 10 mg/kg p.o.): 43.1%; TGI (MycCaP;Pten-KO cells; 30 mg/kg p.o.): 56.4%; TGI (MycCaP;Pten-KO cells; 100 mg/kg p.o.): 74.6%; Efficacy MycCaP;Pten-ko (TGI @ 100 mg/kg/d po) (MycCaP;Pten-KO cells): 75
Cn1nc(C(F)(F)F)cc1-c1ccc(-c2ccc(Cl)cc2)c(OCc2ccc(Cl)c(C(F)(F)F)c2)c1O [NUCC-0226652]	72.3	4.42	5.2	16.6	–
Cn1cncc1-c1ccc(OCc2ccc(Cl)cc2)c(-c2ccc(Cl)c(C(F)(F)F)c2)c1O [NUCC-0226660]	94.4	> 50	2.5	9.22	–
Cn1nc(N)cc1-c1ccc(OCc2ccc(Cl)cc2)c(-c2ccc(Cl)c(C(F)(F)F)c2)c1O [NUCC-0226915]	86.9	14.2	0.95	10.5	–
Cn1nc(C(F)(F)F)c(Cl)c1-c1cc(Cl)c(COc2ccc(Cl)cc2)c(-c2ccc(Cl)c(C(F)(F)F)c2)c1O [NUCC-0227037]	33.6	0.96	15.1	11.1	AUC(0-inf) [1]: 4200 ng·h/mL; AUC(0-t) [1]: 4000 ng·h/mL; Cmax [1]: 202 ng/mL; MRT inf [1]: 15.8 h; Tmax [1]: 4 h; half-life ([1]; T1/2, Table 6, PO 1 mg/kg): 10.7 h; half-life ([1]; T1/2—range*, Table 6, PO 1 mg/kg): 8 to 48 h; AUMC0-t [2]: 53530 h*h*ng/mL; AUMC0-∞ [2]: 66373 h*h*ng/mL; TGI (MycCaP;Pten-KO cells; 10 mg/kg p.o.): 43.99%; TGI (MycCaP;Pten-KO cells; 30 mg/kg p.o.): 57.24%; TGI (MycCaP;Pten-KO cells; 100 mg/kg p.o.): 81.48%; Efficacy MycCaP;Pten-ko (TGI @ 100 mg/kg/d po) (MycCaP;Pten-KO cells): 80
Cn1nc(C(N)=O)cc1-c1cc(Cl)c(COc2ccc(Cl)cc2)c(-c2ccc(Cl)c(C(F)(F)F)c2)c1O [NUCC-0227066]	84.2	8.53	3.9	–	–
Cn1nc(C(F)(F)F)cc1-c1cc2c(c(-c3ccc(Cl)c(C(F)(F)F)c3)c1O)CN(Cc1ccc(Cl)cc1)CC2 [NUCC-0227169]	41.8	3.28	14.6	8.01	–
Cn1nc(C(F)(F)F)cc1-c1cc2c(c(-c3ccc(Cl)c(C(F)(F)F)c3)c1O)OC(c1ccc(Cl)cc1)CC2 (centres unmarked) [NUCC-0227173]	62.9	4.74	9	14.1	–
Cn1nc(C(F)(F)F)cc1-c1cc(C(F)(F)F)c(COc2ccc(Cl)cc2)c(-c2ccc(Cl)c(C(F)(F)F)c2)c1O [NUCC-0227244]	39.5	0.57	22.8	4.55	Toxicity @ 100 mg/kg/d [3]: ++ (++, 15-20% weight loss)

Second part, led by results:

remaining activity at 10 µM (MYC) [%]	IC50 (PC3 cells) [µM]	SMILES	fold induction at 10 µM (ATF4)	IC50 (PC12 cells) [µM]	further results
28.4	2.1	Cn1nc(C(F)(F)F)cc1-c1ccc(N(CC23CC4CC(CC(C4)C2)C3)C(=O)c2ccc(Cl)c(C(F)(F)F)c2)cc1O [NUCC-0226225]	15.2	14.5	–
48.5	1.1	Cn1nc(C(F)(F)F)cc1-c1ccc(OCc2ccc(OCCOCCNc3cccc4c3C(=O)N(C3CCC(=O)NC3=O)C4=O)cc2)c(-c2ccc(Cl)c(C(F)(F)F)c2)c1O (centres unmarked) [NUCC-0226301]	3.2	3.8	–
37.3	2.4	Cn1nc(C(F)(F)F)cc1-c1ccc(OCc2ccc(Cl)cc2)c(-c2ccc(Cl)c(C#N)c2)c1O [NUCC-0226499]	17.1	13.5	–
72.4	1.6	COc1c(Cl)cc(-c2cc(C(F)(F)F)nn2C)c(O)c1-c1ccc(Cl)c(C(F)(F)F)c1 [NUCC-0226500]	7.7	8.6	–
69.8	0.74	Cn1nc(C(F)(F)F)cc1-c1ccnc(-c2ccc(Cl)c(C(F)(F)F)c2)c1O [NUCC-0226595]	6.3	4.03	–
48.5	1.01	Cn1nc(C#N)cc1-c1ccc(OCc2ccc(Cl)cc2)c(-c2ccc(Cl)c(C(F)(F)F)c2)c1O [NUCC-0226914]	14.1	3.5	–
34.5	1.61	Cn1nc(C(F)(F)F)c(Cl)c1-c1cc(Cl)c(COc2ccc(Cl)cc2Cl)c(-c2ccc(Cl)c(C(F)(F)F)c2)c1O [NUCC-0227038]	15.1	15.3	–
40.7	0.964	Cn1nc(C(F)(F)F)cc1-c1cc(Cl)c(CNc2ccc(Cl)cc2)c(-c2ccc(Cl)c(C(F)(F)F)c2)c1O [NUCC-0227062]	15	2.31	–
37.2	0.985	Cn1nc(C(F)(F)F)c(Cl)c1-c1cc(F)c(COc2ccc(Cl)cc2)c(-c2ccc(Cl)c(C(F)(F)F)c2)c1O [NUCC-0227063]	12.4	5.02	–
42	0.399	Cn1nc(C(F)(F)F)c(Cl)c1-c1ccc(COc2ccc(Cl)cc2Cl)c(-c2ccc(Cl)c(C(F)(F)F)c2)c1O [NUCC-0227064]	12.7	8.27	–
35.4	0.74	Cn1nc(C#N)cc1-c1cc(Cl)c(COc2ccc(Cl)cc2)c(-c2ccc(Cl)c(C(F)(F)F)c2)c1O [NUCC-0227065]	13.4	3.8	–
37.3	0.91	Cn1nc(C(F)(F)F)c(Cl)c1-c1cc(Cl)c(Oc2ccc(Cl)cc2)c(-c2ccc(Cl)c(C(F)(F)F)c2)c1O [NUCC-0227246]	23.5	5.78	–
46.7	1.14	Cn1nc(C(F)(F)F)cc1-c1ccc(Oc2ccc(Cl)cc2)c(-c2ccc(Cl)c(C(F)(F)F)c2)c1O [NUCC-0227247]	18.3	7.12	–
